Measurements reported in US12606556B2, “TYK-2 inhibitor” (BEIGENE, LTD., priority 2020, dated 2026).

Columns and labels:
[1] = molecular target: T1, TYK2-JH2 (aa 575-869, in-house) protein (Homo sapiens, UniProt P29597); test: TYK2-JH2 biochemical assay (HTRF, blocking of TYK2-JH2 protein with its probe); assay type: binding; conditions: for IC50: HTRF, 0.2 nM recombinant TYK2-JH2, Probe 1; for Biochemical assay Selectivity fold (TYK2/JAK1): TYK2-JH2 vs JAK1-JH2 biochemical IC50
T1 construct: TYK2-JH2 (aa 575-869, in-house) protein; made in house
How it was run: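 Recombinant TYK2-JH2 (0.2 nM) pre-incubated with compounds (10 doses, 5-fold dilutions) 0.5 h at RT in HEPES pH 7.5 buffer with MgCl2, BSA, DTT, Brij-35; biotinylated probe (10 nM working solution, KD=10 nM) plus anti-6His Tb cryptate/streptavidin-XL665 added, 1 h RT. HTRF ratio read; IC50 from four-parameter logistic fit.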

[2] = molecular target: T2, JAK1-JH2 protein (aa 561-860, in-house) (Homo sapiens, UniProt P23458); test: JAK1-JH2 biochemical assay (HTRF, blocking of JAK1-JH2 protein with its probe); assay type: binding; conditions: 1.17 nM recombinant JAK1-JH2, Probe 2
T2 construct: JAK1-JH2 protein (aa 561-860, in-house); made in house
How it was run: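 HTRF probe-displacement assay using recombinant human JAK1 pseudokinase domain (aa 561-860, 1.17 nM in pre-incubation step), pre-incubated 0.5 h at room temperature with 10-dose 5-fold compound series. Buffer: 20 mM HEPES pH 7.5, 10 mM MgCl2, 0.005% BSA, 2 mM DTT, 0.015% Brij-35. IC50 by four-parameter logistic fit of 615/665 nm ratio.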

[3] = test system: JAK2, TYK2/p-STAT4 (Tyr693) activated by IL-12 in NK-92 cell line; test: IL-12-JAK2, TYK2/p-STAT4 (Tyr693) inhibition cellular assay; assay type: cell-based; conditions: for IC50: NK92, 0.5 h, NK-92 cells, IL-12 40 ng/ml, 30 min, read-out: Cellular assay pSTAT4/IL-12 IC50; for Cellular assay Selectivity fold (TYK2/JAK1): pSTAT4/IL-12 vs pSTAT3/IL-6 cellular IC50
How it was run: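 NK-92 cells were starved overnight without IL-2 and seeded at 5×10^4 per well in 1640 medium with 0.1% BSA. Lysate p-STAT4 (Tyr693) was measured by AlphaLISA SureFire, and IC50 was fitted with a 4-parameter logistic model.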

[4] = test system: JAK1/p-STAT3(Tyr705) activated by IL-6 in TF-1 cell line; test: IL-6-JAK1/p-STAT3(Tyr705) inhibition cellular assay; assay type: cell-based; conditions: Homo sapiens, 0.5 h; TF-1 cells, IL-6 50 ng/ml, 30 min; read-out: Cellular assay pSTAT3/IL-6 IC50

T2 sequence (P23458 561-860): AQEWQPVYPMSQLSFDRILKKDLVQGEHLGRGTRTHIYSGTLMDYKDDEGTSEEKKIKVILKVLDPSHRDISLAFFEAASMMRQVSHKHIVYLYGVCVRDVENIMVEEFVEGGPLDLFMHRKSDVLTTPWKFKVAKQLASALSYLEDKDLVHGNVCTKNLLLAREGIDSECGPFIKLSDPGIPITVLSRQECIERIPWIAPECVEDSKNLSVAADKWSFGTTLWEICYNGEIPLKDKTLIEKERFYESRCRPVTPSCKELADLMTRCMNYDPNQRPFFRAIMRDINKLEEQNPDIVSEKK
T1 sequence (P29597 575-869): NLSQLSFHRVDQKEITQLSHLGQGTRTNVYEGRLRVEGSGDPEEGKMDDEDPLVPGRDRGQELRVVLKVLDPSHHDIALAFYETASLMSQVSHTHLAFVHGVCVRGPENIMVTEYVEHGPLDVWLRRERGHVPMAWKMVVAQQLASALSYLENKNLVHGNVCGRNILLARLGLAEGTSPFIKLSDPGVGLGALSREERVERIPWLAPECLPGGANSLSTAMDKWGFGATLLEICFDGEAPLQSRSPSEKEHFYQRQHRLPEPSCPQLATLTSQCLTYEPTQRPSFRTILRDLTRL

Row | IC50 [1] [nM] | Biochemical assay Selectivity fold (TYK2/JAK1) [1] [fold] | IC50 [2] [nM] | IC50 [3] [nM] | IC50 [4] [nM] | SMILES | Cellular assay Selectivity fold (TYK2/JAK1) [3] [fold]
1 | 0.143 | 11 | 1.56 | 1320 | > 10000 | CNC(=O)c1nnc(NC(=O)C2CC2)cc1Nc1nc2ccc(OC3CN(C(=O)CC#N)C3)cn2n1 [Example C5, 4-((6-((1-(2-cyanoacetyl)azetidin-3-yl)oxy)-[1,2,4]triazolo[1,5-a]pyridin-2-yl)amino)-6-(cyclopro-panecarbox-amido)-N-methyl-pyridazine-3-carboxamide] | >8
2 | 0.046 | 20 | 0.93 | 15.6 | 2910 | CNC(=O)c1nnc(NC(=O)C2CC2)cc1Nc1nc2ccc(N3CC(OCCOC)C3)cn2n1 [Example E16, 6-(cyclopropanecar-boxamido)-4-((6-(3-(2-methoxyethoxy)azetidin-1-yl)-[1,2,4]triazolo[1,5-a]pyridin-2-yl)amino)-N-methylpyridazine-3-carboxamide] | 186
3 | 0.084 | 9 | 0.78 | 47.8 | > 10000 | CNC(=O)c1nnc(NC(=O)C2CC2)cc1Nc1nc2ccc(N3CC(c4ncn(C)n4)C3)cn2n1 [Example E7, 6-(cyclopropanecar-boxamido)-N-methyl-4-((6-(3-(1-methyl-1H-1,2,4-triazol-3-yl)azetidin-1-yl)-[1,2,4]triazolo [1,5-a]pyridin-2-yl)amino)pyridazine-3-carboxamide] | >209
4 | 0.057 | 21 | 1.2 | 34.2 | > 10000 | CNC(=O)c1nnc(NC(=O)C2CC2)cc1Nc1nc2ccc(N3CC(O)C3)cn2n1 [Example H1, 6-(cyclopropanecarboxamido)-4-((6-(3-hydroxyazetidin-1-yl)-[1,2,4]triazolo[1,5-a]pyridin-2-yl)amino)-N-methylpyridazine-3-carboxamide] | >292
5 | 0.076 | 22 | 1.7 | 2000 | > 10000 | CNC(=O)c1nnc(NC(=O)C2CC2)cc1Nc1nc2ccc(C3CN(C(=O)c4ncn(C)n4)C3)cn2n1 [Example L5, 6-(cyclopropanecarboxamido)-N-methyl-4-((6-(1-(1-methyl-1H-1,2,4-triazole-3-carbonyl)azetidin-3-yl)-[1,2,4]triazolo[1,5-a]pyridin-2-yl)amino)pyridazine-3-carboxamide] | >5
6 | 0.071 | 35 | 2.5 | 8.28 | 2630 | CNC(=O)c1nnc(NC(=O)C2CC2)cc1Nc1nc2ccc(N3CC(F)(COC)C3)cn2n1 [Example E17, 6-(cyclopropanecar-boxamido)-4-((6-(3-fluoro-3-(methoxy-methyl)azetidin-1-yl)-[1,2,4]triazolo[1,5-a]pyridin-2-yl)amino)-N-methylpyridazine-3-carboxamide] | 317
7 | 0.038 | 34 | 1.3 | 8.9 | 4060 | [2H]C([2H])([2H])NC(=O)c1nnc(NC(=O)C2CC2)cc1Nc1nc2ccc(N3CCC3)cn2n1 [Example E3, 4-((6-(azetidin-1-yl)-[1,2,4]triazolo [1,5-a]pyridin-2-yl)amino)-6-(cyclopropanecarbox-amido)-N-(methyl-d3) pyridazine-3-carboxamide] | 453
8 | 0.12 | 13 | 1.5 | 645 | > 10000 | CNC(=O)c1nnc(NC(=O)C2CC2)cc1Nc1nc2ccc(N3CC(S(C)(=O)=O)C3)cn2n1 [Example E18, 6-(cyclopropanecar-boxamido)-N-methyl-4-((6-(3-(methyl-sulfonyl)azetidin-1-yl)-[1,2,4]triazolo [1,5-a]pyridin-2-yl)amino)pyridazine-3-carboxamide] | >15.5
9 | 0.045 | 29 | 1.3 | 8.14 | > 10000 | CNC(=O)c1nnc(NC(=O)C2CC2)cc1Nc1nc2ccc(N3CC(COC)C3)cn2n1 [Example E15, 6-(cyclopropanecar-boxamido)-4-((6-(3-(methoxymethyl)azetidin-1-yl)-[1,2,4]triazolo[1,5-a]pyridin-2-yl)amino)-N-methylpyridazine-3-carboxamide] | >1228
10 | 0.081 | 32 | 2.6 | 276 | > 10000 | CNC(=O)c1nnc(NC(=O)C2CC2)cc1Nc1nc2ccc(C3CN(C(C)=O)C3)cn2n1 [Example L2, 4-((6-(1-acetylazetidin-3-yl)-[1,2,4]triazolo[1,5-a]pyridin-2-yl)amino)-6-(cyclopropanecarboxamido)-N-methylpyridazine-3-carboxamide] | >36
11 | 0.064 | 26 | 1.7 | 16 | 7270 | CNC(=O)c1nnc(NC(=O)C2CC2)cc1Nc1nc2ccc(N3CC(N(C)C)C3)cn2n1 [Example E5, 6-(cyclopropanecar-boxamido)-4-((6-(3-(dimethylamino)azetidin-1-yl)-[1,2,4]triazolo [1,5-a]pyridin-2-yl)amino)-N-methylpyridazine-3-carboxamide] | 454
12 | 0.089 | 36 | 3.2 | 16.4 | > 10000 | CNC(=O)c1nnc(NC(=O)C2CC2)cc1Nc1nc2ccc(N3CCC3COC)cn2n1 (stereo not drawn) [Example E20, 6-(cyclopropanecar-boxamido)-4-((6-(2-(methoxymethyl)azetidin-1-yl)-[1,2,4]triazolo[1,5-a]pyridin-2-yl)amino)-N-methylpyridazine-3-carboxamide] | >609
13 | 0.16 | 8 | 1.3 | 104 | 2410 | CNC(=O)c1nnc(NC(=O)C2CC2)cc1Nc1nc2ccccn2n1 [Example A4, 4-([1,2,4]triazolo[1,5-a]pyridin-2-ylamino)-6-(cyclopropane-carboxamido)-N-methyl-pyridazine-3-carboxamide] | 23
